Entries after “also recorded” stand apart in the source; their conditions may differ.
Assays:
[1] = tested on: chondroitin 6-sulfotransferase; assay: Transfer reaction of sulfate group (35SO4) to lactosamine oligosaccharides by purified sulfotransferase; type: biochemical, chick; conditions: for Incorporation of 35S: 0.025 μmol oligosaccharide acceptor, 25 pmol [35S]PAPS, 0.09 μg purified C6ST, 37° C., 60 minutes, pH 6.8; for Incorporation (transfer) of sulfate group into the oligosaccharide, in words: acceptor for chondroitin 6-sulfotransferase, Superdex 30 gel filtration, 35S radioactivity
Description: Specifically, the transfer reaction of sulfate group (^35 SO4 was used as sulfate group in order to confirm sulfation) to various lactosamine oligosaccharides by using sulfotransferase was performed in accordance with the following method. A standard reaction mixture was a solution containing 2.5 μmol of imidazole-HCl (pH 6.8), 0.25 μmol of CaCl2, 0.1 μmol of dithiothreitol, 0.025 μmol of various lactosamine oligosaccharides, 25 pmol of [^35 S]PAPS (about 2.5×10^5 cpm), and 0.09 μg of purified chondroitin 6-sulfotransferase in a final volume of 50 μl. The reaction mixture was subjected to the reaction at 37° C. for 60 minutes in a reaction tube. The reaction was terminated by immersing the reaction tube in boiling water for 1 minute. After the termination of the reaction, lactosamine oligosaccharide (sulfated lactosamine oligosaccharide) to which ^35 SO4 had been transferred was separated from free ^35 SO4 and [^35 S]PAPS by means of gel filtration chromatography. A fraction (1 ml) was collected to measure the radioactivity.
The retention time of the sulfated lactosamine oligosaccharide was faster by 2 to 3 minutes than the retention time (indicated by arrows shown in FIG. 1) of the lactosamine oligosaccharide used (lactosamine oligosaccharide before sulfation (acceptor)). […] A peak of sulfated LN partially overlapped with those of free ^35 SO4 and [^35 S]PAPS. A radioactivity peak (indicated by a horizontal bar in FIG. 1A) of a product produced from LN was subjected to paper electrophoresis. As a result, the sulfated LN was separated from ^35 SO4 and [^35 S]PAPS. Therefore, incorporation of sulfate group (^35 SO4) into LN was calculated after the paper electrophoresis.

[2] = tested on: chondroitin 6-sulfotransferase (C6ST); assay: Sulfotransferase activity measured with various glycosaminoglycan substrates and activators; type: biochemical, chick; conditions: for Transfer of sulfate group to glycosaminoglycan substrate by C6ST, in words: 25 nmol glycosaminoglycan, [35S]PAPS, 37° C., 20 minutes
Description: In the purification steps, the sulfotransferase activity was measured as follows. The reaction solution had the following composition.
The activity was measured for various glycosaminoglycans as the substrate, by using 25 nmol of glycosaminoglycans (as an amount of galactosamine for chondroitin sulfate and dermatan sulfate, or as an amount of glucosamine for heparan sulfate and keratan sulfate) in place of chondroitin.
The reaction solution was incubated at 37° C. for 20 minutes in a reaction tube, and then the reaction was terminated by immersing the reaction tube in boiling water for 1 minute. After the termination of the reaction, 0.1 μmol of chondroitin sulfate A (as an amount of glucuronic acid) was added as a carrier, and three volumes of ethanol containing 1.3% potassium acetate was added thereto to precipitate ^35 S-labeled polysaccharide. The mixture was centrifuged at 10,000× g for 10 minutes to obtain a precipitate which was then dissolved in 70 μl of water. An aliquot (50 μl) of the obtained solution was injected into a desalting column equilibrated with 0.1 M NH4 HCO3, and eluted fractions containing the ^35 S-labeled polysaccharide were collected. To an aliquot (200 μl) of an obtained collected fraction, 1 ml of a scintillation cocktail (Clearsol, produced by nacalai tesque) was added to measure ^35 S-radioactivity. Thus incorporation of ^35 S into the polysaccharide was measured.
An aliquot (400 μl) was dispensed from the residual solution, to which 800 μl of ethanol containing 1.3% potassium acetate was added, followed by mixing. The mixture was placed on ice for 30 minutes, followed by centrifugation at 10,000× g for 10 minutes to precipitate the ^35 S-labeled polysaccharide. The precipitate was dissolved in 25 μl of a buffer containing 0.1 mg/ml of BSA, 0.05 M Tris-acetate, pH 7.5, and 10 milliunits of chondroitinase ACII (originating from Arthrobacter aurescens, produced by Seikagaku Corporation) to perform a reaction at 37° C. for 2 hours. The solution after the reaction was spotted onto Whatman No. 1 filter paper together with 2-acetamido-2-deoxy-3-O-(β-D-gluco-4-enopyranosyluronic acid)-6-O-sulfo-D-galactose (ΔDi-6S) and 2-acetamido-2-deoxy-3-O-(β-D-gluco-4-enopyranosyluronic acid)-4-O-sulfo-D-galactose (ΔDi-4S) (each 0.1 μmol, each produced by Seikagaku Corporation), followed by development for 20 hours with 1-butanol/acetic acid/1 M ammonium hydroxide (2:3:1 (V/V/V)).
(§1) Positions of ΔDi-6S and ΔDi-4S were inspected by using an ultraviolet lamp respectively. Portions corresponding to them were excised from the filter paper respectively, and were then placed in a scintillator prepared by dissolving 5 g of diphenyloxazole and 0.25 g of dimethyl-1,4-bis(2-(5-phenyloxazole))benzene in 1 L of toluene to measure radioactivity. […] According to incorporation of ^35 S into ΔDi-6S and ΔDi-4S, activities of chondroitin 6-sulfotransferase and chondroitin 4-sulfotransferase were calculated respectively. The activity to catalyze transfer of 1 pmol sulfate group/minute was defined as 1 unit.

[3] = Specific activity of purified chondroitin 6-sulfotransferase (35S incorporation into ΔDi-6S and ΔDi-4S); type: biochemical; conditions: chondroitin substrate
Description: In the purification steps, the sulfotransferase activity was measured as follows. The reaction solution had the following composition. Namely, the reaction solution (50 μl) contained 2.5 μmol of imidazol-HCl, pH 6.8, 1.25 μg of protamine hydrochloride, 0.1 μmol of dithiothreitol,25 nmol (as an amount of glucuronic acid) of chondroitin (produced by Seikagaku Corporation), 50 pmol of [^35 S]PAPS (adenosine 3'-phosphate, 5'-phosphosulfate), and the enzyme.
The reaction solution was incubated at 37° C. for 20 minutes in a reaction tube, and then the reaction was terminated by immersing the reaction tube in boiling water for 1 minute. […] To an aliquot (200 μl) of an obtained collected fraction, 1 ml of a scintillation cocktail (Clearsol, produced by nacalai tesque) was added to measure ^35 S-radioactivity. Thus incorporation of ^35 S into the polysaccharide was measured. […]
as §1, with “The activity to catalyze transfer of 1 pmol sulfate group/minute was defined as 1 unit.” left out

| Incorporation of 35S [1] [pmol/minute/μg protein] | Incorporation (transfer) of sulfate group into the oligosaccharide, in words [1] | Transfer of sulfate group to glycosaminoglycan substrate by C6ST, in words [2] | Molecule | also measured |
| --- | --- | --- | --- | --- |
| 0.031 | observed | – | CC(=O)N[C@H]1[C@H](O[C@H]2[C@@H](O)[C@@H](CO)O[C@@H](O[C@H]3[C@H](O)[C@@H](NC(C)=O)C(O)O[C@@H]3CO)[C@@H]2O)O[C@H](CO)[C@@H](O[C@@H]2O[C@H](CO)[C@H](O)[C@H](O)[C@H]2O)[C@@H]1O (stereo partly shown) [L1L1, Galβ1--4GlcNAcβ1--3Galβ1--4GlcNAc] | – |
| – | – | only scarcely transferred | chondroitin sulfate E | – |
| – | – | only scarcely transferred | heparan sulfate | – |
| 0.29 | observed | – | CC(=O)N[C@H]1[C@H](O[C@H]2[C@@H](O)[C@@H](COS(=O)(=O)O)O[C@@H](O[C@H]3[C@H](O)[C@@H](NC(C)=O)C(O)O[C@@H]3COS(=O)(=O)O)[C@@H]2O)O[C@H](COS(=O)(=O)O)[C@@H](O[C@@H]2O[C@H](CO)[C@H](O)[C@H](O)[C@H]2O)[C@@H]1O (stereo partly drawn) [L2L4, Galβ1--4GlcNAc(6S)β1--3Gal(6S)β1--4GlcNAc(6S)] | – |
| – | – | transfers the sulfate group | chondroitin | – |
| 0.022 | observed | – | CC(=O)NC1C(O)OC(CO)C(OC2OC(CO)C(O)C(OC3(C(=O)O)CC(O)C(NC(C)=O)C(C(O)C(O)CO)O3)C2O)C1O (stereo not shown) [SLN, NeuAcα2--3Galβ1--4GlcNAc] | – |
| 0.48 | observed | – | CC(=O)NC1C(O)OC(COS(=O)(=O)O)C(OC2OC(COS(=O)(=O)O)C(O)C(OC3OC(COS(=O)(=O)O)C(OC4OC(CO)C(O)C(OC5(C(=O)O)CC(O)C(NC(C)=O)C(C(O)C(O)CO)O5)C4O)C(O)C3NC(C)=O)C2O)C1O [SL2L4, NeuAcα2--3Galβ1--4GlcNAc(6S)β1--3Gal(6S)β1--4GlcNAc(6S)] | – |
| 0.034 | observed | – | CC(=O)NC1C(O)OC(CO)C(OC2OC(CO)C(O)C(OC3OC(CO)C(OC4OC(CO)C(O)C(OC5(C(=O)O)CC(O)C(NC(C)=O)C(C(O)C(O)CO)O5)C4O)C(O)C3NC(C)=O)C2O)C1O (stereo not shown) [SL1L1, NeuAcα2--3Galβ1--4GlcNAcβ1--3Galβ1--4GlcNAc] | – |
| 0.012 | observed | – | CC(=O)N[C@H]1C(O)O[C@H](CO)[C@@H](O[C@@H]2O[C@H](CO)[C@H](O)[C@H](O)[C@H]2O)[C@@H]1O (stereo partly shown) [LN, Galβ1--4GlcNAc] | – |
| – | – | transfers the sulfate group | chondroitin sulfate | – |
| – | – | – | [Cl][Mn][Cl] [MnCl2] | Effect on the activity of C6ST [2]: increased |
| – | – | transfers the sulfate group | keratan sulfate | – |
| – | – | transfers the sulfate group | chondroitin sulfate A | – |
| – | – | transfers the sulfate group | chondroitin sulfate C | – |
| – | – | – | protamine | Effect on the activity of C6ST [2]: increased |
| – | – | – | chondroitin 6-sulfotransferase: sulfotransferase purified from serum-free culture medium of chick chondrocyte (protein, UniProt Q92179 1-458, looked up) Carbohydrate sulfotransferase …: MERRSALPQDFREVLHCLKMRSKYAVLLVFVVGLVIIEKENNFISRVSDKLKQSPQVLPEANETEASPVQAENGSLASLRQLDTAFSQLRTRLRNVTLQLAGELGIAAPEPRRHVLLMATTRTGSSFVGEFFNQQGNIFYLFEPLWHIERTVTFEPGGANAVGSALVYRDVLQQLLLCDLYILESFISPAPEEHLTAALFRRGSSHSLCEEPVCTPSLKKVFEKYHCKNRRCGPLNITLAAEACRRKQHMALKTVRIRQLEFLQPLAEDPRLDLRIIQLVRDPRAVLVSRMVAFSGKYESWKKWAAEGEAPLQEDEVQRLRGNCESIRLSAELGLRQPRWLRGRYMLVRYEDVARAPLRKALEMYRFAGIHPTPQVEEWIRANTQAPQDSNGIYSTQKNSSEQFEKWRFSIPFKLAQVVQDACEPAMRLFGYKLASSAQELTNRSLSLLEEGPPTRIT | Specific activity of chondroitin 6-sulfotransferase ([3]; 1 unit = transfer of 1 pmol sulfate group/minute): 4.3×10^5 units/mg; Ratio of activities of chondroitin 4-sulfotransferase/chondroitin 6-sulfotransferase ([3]; purified enzyme): 0.02 |

| Molecule | Incorporation of 35S [1] [pmol/minute/μg protein] | Incorporation (transfer) of sulfate group into the oligosaccharide, in words [1] | Transfer of sulfate group to glycosaminoglycan substrate by C6ST, in words [2] | also measured |
| --- | --- | --- | --- | --- |
| CC(=O)NC1C(O)CC(OC2C(O)C(CO)OC(OC3C(CO)OC(O)C(NC(C)=O)C3OC3OC(C)C(O)C(O)C3O)C2O)(C(=O)O)OC1C(O)C(O)CO (stereo not shown) [SLe^x, NeuAcα2--3Galβ1--4(Fucα1-3)GlcNAc] | – | no radioactivity was detected; also recorded: not detected | – | – |
| dermatan sulfate | – | – | only scarcely transferred | – |
